Among the data in patent US8318749B2, “Quinazoline derivatives as NK3 receptor antagonists” (Hoffmann-La Roche Inc., priority 2008, dated 2012) are Ki values, retold here.

For the assay, the target named is T1, recombinant human NK3 receptor (Homo sapiens, UniProt P29371).
T1 construct: expressed in transfected cells; host or cells: HEK293 cells (transient expression), membrane preparation
T1 sequence (P29371 1-465): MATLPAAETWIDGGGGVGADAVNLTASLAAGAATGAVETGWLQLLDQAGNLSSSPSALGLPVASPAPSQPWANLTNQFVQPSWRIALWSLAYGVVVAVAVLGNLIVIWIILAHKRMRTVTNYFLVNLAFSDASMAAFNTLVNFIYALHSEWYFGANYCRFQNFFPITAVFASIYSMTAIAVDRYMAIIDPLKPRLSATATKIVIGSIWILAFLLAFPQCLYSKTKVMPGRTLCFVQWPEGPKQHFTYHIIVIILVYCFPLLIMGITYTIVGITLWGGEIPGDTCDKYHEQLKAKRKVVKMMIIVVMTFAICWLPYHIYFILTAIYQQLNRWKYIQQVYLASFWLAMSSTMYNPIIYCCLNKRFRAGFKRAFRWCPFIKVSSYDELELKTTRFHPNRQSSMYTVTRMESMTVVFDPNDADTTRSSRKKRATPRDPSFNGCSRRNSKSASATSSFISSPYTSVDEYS
Put plainly: [3H]SR142801 competition binding assay. To be noted: membrane from HEK293 cells transiently expressing recombinant human NK3 receptor; radioligand [3H]SR142801; 75 min at RT. How it is done: [^3H]SR142801 Competition Binding Assay
hNK3 receptor binding experiment were performed using [^3H]SR142801 (Catalog No. TRK1035, specific activity: 74.0 Ci/mmol, Amersham, GE Healthcare UK limited, Buckinghamshire, UK) and membrane isolated from HEK293 cells transiently expressing recombinant human NK3 receptor. After thawing, the membrane homogenates were centrifuged at 48,000×g for 10 min at 4° C., the pellets were resuspended in the 50 mM Tris-HCl, 4 mM MnCl2, 1 μM phosphoramidon, 0.1% BSA binding buffer at pH 7.4 to a final assay concentration of 5 μg protein/well. […] At the end of the incubation, membranes were filtered onto unitfilter (96-well white microplate with bonded GF/C filter preincubated 1 h in 0.3% PEI+0.3% BSA, Packard BioScience, Meriden, Conn.) with a Filtermate 196 harvester (Packard BioScience) and washed 4 times with ice-cold 50 mM Tris-HCl, pH 7.4 buffer. Nonspecific binding was measured in the presence of 10 μM SB222200 for both radioligands. The radioactivity on the filter was counted (5 min) on a Packard Top-count microplate scintillation counter with quenching correction after addition of 45 μl of microscint 40 (Canberra Packard S.A., Zürich, Switzerland) and shaking for 1 h. Inhibition curves were fitted according to the Hill equation: y=100/(1+(x/IC50)^nH), where nH=slope factor using Excel-fit 4 software (Microsoft). IC50 values were derived from the inhibition curve and the affinity constant (Ki) values were calculated using the Cheng-Prussoff equation Ki=IC50/(1+[L]/KD) where [L] is the concentration of radioligand and KD is its dissociation constant at the receptor, derived from the saturation isotherm. All experiments were performed in duplicate and the mean±standard error (SEM) of the individual Ki values was calculated.

As usually defined, the Ki is a measure of affinity in units of concentration, obtained from inhibition or displacement.

With `COc1cc2nc(N3CCC(Cc4ccccc4)(C(=O)N(C)C4Cc5ccccc5C4)CC3)nc(O)c2cc1OC` [Example 57, 4-Benzyl-1-(4-hydroxy-6,7-dimethoxy-quinazolin-2-yl)-piperidine-4-carboxylic acid indan-2-yl-methyl-amide], the inhibitory constant (Ki) was 62.8 nM. On to `COc1cc2nc(N3CCC(Cc4ccccc4)(C(=O)NC4CCc5ccccc5C4)CC3)nc(O)c2cc1OC` (stereo not drawn) [Example 58, 4-Benzyl-1-(4-hydroxy-6,7-dimethoxy-quinazolin-2-yl)-piperidine-4-carboxylic acid (1,2,3,4-tetrahydro-naphthalen-2-yl)-amide], for which the Ki came to 3.8 nM. As for `COc1cc2nc(N3CCC(Cc4ccccc4)(C(=O)Nc4cnn(C)c4)CC3)nc(O)c2cc1OC` [Example 59, 4-Benzyl-1-(4-hydroxy-6,7-dimethoxy-quinazolin-2-yl)-piperidine-4-carboxylic acid (1-methyl-1H-pyrazol-4-yl)-amide], the figure is 39.1 nM. As to `COc1cc2nc(N3CCC(Cc4ccccc4)(C(=O)NC4Cc5cc(Cl)ccc5C4O)CC3)nc(O)c2cc1OC` (stereo not drawn) [Example 65, 4-Benzyl-1-(4-hydroxy-6,7-dimethoxy-quinazolin-2-yl)-piperidine-4-carboxylic acid (5-chloro-1-hydroxy-indan-2-yl)-amide], the Ki was 51.6 nM. With `COc1cc2nc(N3CCC(Cc4ccccc4)(C(=O)NCC4CCC4)CC3)nc(O)c2cc1OC` [Example 67, 4-Benzyl-1-(4-hydroxy-6,7-dimethoxy-quinazolin-2-yl)-piperidine-4-carboxylic acid cyclobutylmethyl-amide], the Ki came out at 47.9 nM. As to `COc1cc2nc(N3CCC(Cc4ccccc4)(C(=O)NC4CCc5ccccc5C4O)CC3)nc(O)c2cc1OC` (stereo not drawn) [Example 68, 4-Benzyl-1-(4-hydroxy-6,7-dimethoxy-quinazolin-2-yl)-piperidine-4-carboxylic acid (1-hydroxy-1,2,3,4-tetrahydro-naphthalen-2-yl)-amide], the Ki is 83.9 nM.

Regarding `COc1cc2nc(N3CCC(CC(C)C)(C(=O)NCc4ccccc4)CC3)nc(N)c2cc1OC` [Example 70, 1-(4-Amino-6,7-dimethoxy-quinazolin-2-yl)-4-isobutyl-piperidine-4-carboyxlic acid benzylamide], the inhibition constant (Ki) is 64 nM. In the case of `COc1cc2nc(N3CCC(CC4CC4)(C(=O)NCc4ccccc4)CC3)nc(O)c2cc1OC` [Example 72, 4-Cyclopropylmethyl-1-(4-hydroxy-6,7-dimethoxy-quinazolin-2-yl)-piperidine-4-carboxylic acid benzylamide], the Ki turned out to be 38.3 nM. Take `COc1cc2nc(N3CCC(CC4CC4)(C(=O)N(C)Cc4ccccc4)CC3)nc(O)c2cc1OC` [Example 75, 4-Cylcopropylmethyl-1-(4-hydroxy-6,7-dimethoxy-quinazolin-2-yl)-piperidine-4-carobxylic acid benzyl-methyl-amide]: the Ki is 47.8 nM. Consider `COc1cc2nc(N3CCC(CC4CCC4)(C(=O)NCc4ccccc4)CC3)nc(O)c2cc1OC` [Example 76, 4-Cyclobutylmethyl-1-(4-hydroxy-6,7-dimethoxy-quinazolin-2-yl)-piperidine-4-carboxylic acid benzylamide], for which the Ki came to 5.8 nM. As for `COc1cc2nc(N3CCC(CC4CCC4)(C(=O)NC4CCc5ccccc5C4)CC3)nc(O)c2cc1OC` (stereo not drawn) [Example 77, 4-Cylcobutylmethyl-1-(4-hydroxy-6,7-dimethoxy-quinazolin-2-yl)-piperidine-4-carboxylic acid (1,2,3,4-tetrahydro-naphthalen-2-yl)-amide], the figure is 36.2 nM. Consider `COc1cc2nc(N3CCC(CC4CCC4)(C(=O)NC4CCCC4)CC3)nc(O)c2cc1OC` [Example 78, 4-Cyclobutylmethyl-1-(4-hydroxy-6,7-dimethoxy-quinazolin-2-yl)-piperidine-4-carboxylic acid cyclopentylamide], for which the Ki was determined as 66 nM.
